In patent publication US20140066373A1, “TREATING DIABETES WITH OXYTOCIN OR OXYTOCIN ANALOGS” (Albert Einstein College of Medicine of Yeshiva University, priority 2012, published 2014):
Where no end group is shown, it is not given here.

How the values were obtained:
[1] = system: STZ-induced diabetic mice; assay: 7-day intra-third ventricle pretreatment in STZ-induced diabetic mice: GTT, fasting blood insulin, GSIS, body weight; type: in vivo, C57BL/6 mice; conditions: vs STZ control; for first-phase glucose-stimulated insulin secretion (GSIS): blood insulin 3 min after glucose 3 g/kg i.p.; for fasting blood insulin levels / glucose intolerance (glucose tolerance test, GTT and AUC): pretreatment twice per day for 7 days, intra-third ventricle, 1 μg per injection (1 mg [sic] for [Ser4, Ile8]-oxytocin), STZ 40 mg/kg i.p. Day 4 to Day 7
Text: (§1) Animals. C57BL/6 mice were purchased from Jackson Laboratory. All mice were housed in standard conditions. High-fat diet was purchased from Research Diets, Inc. All animal procedures were approved by the Institutional Animal Care and Use Committee. Mice were subjected to body weight measurement on a daily basis surrounding surgical procedures or drug treatments to monitor physical recovery or the effect of drug treatment on body weight.
(§2) Third ventricle cannulation and drug treatment. Third ventricle cannulation procedure was as previously described (39). An ultra-precise small animal stereotactic apparatus (Kopf Instruments) was used to perform implantation of a guide cannula into the third ventricle of anesthetized mice, at the coordinates of 1.8 mm posterior to the bregma and 5.0 mm below the skull surface. Mice were allowed 1-2 weeks for postsurgical recovery. For drug treatment. Oxytocin (Bachem Americas, Inc.), [Ser4, Ile8]-oxytocin (Bachem Americas, Inc.), [Asu1,6]-oxytocin (American Peptide Company, Inc.) or control vehicle were injected via pre-implanted guide cannula into the third ventricle of individually housed mice.
(§3) Blood tests. For glucose tolerance test (GTT), overnight-fasted mice received one-time intraperitoneal injection of glucose (2 g/kg body weight), and blood glucose levels were measured using OneTouch Ultra2 (LifeScan, Inc.). Fasting blood insulin levels were measured with Ultra Sensitive Mouse Insulin ELISA kits (Crystal Chem). Glucose-stimulated insulin secretion (GSIS) test was performed as previously described (19). Overnight-fasted mice received one-time intraperitoneal injection of glucose (3 g/kg body weight), and blood insulin levels were measured at 3 min. and 20 min. after the injection.
Next, it was investigated if oxytocin therapy may treat diabetes by counteracting its main pathological changes of pancreatic beta cell dysfunction and impaired insulin secretion. […] Experimentally, adult C57BL/6 mice on normal chow diet received intra-third ventricle implantation of cannula and postsurgical recovery. Oxytocin pretreatment was given at 1 μg per injection twice per day for 7 consecutive days via pre-implanted cannula, and non-treatment group received vehicle injections. From Day 4 to Day 7 during oxytocin treatment, mice simultaneously received intraperitoneal injections of STZ at 40 mg/kg body weight per day for 4 days to induce diabetes.
The same test strategy of pretreating mice with [Ser4, Ile8]-oxytocin was employed and then evaluating if it could attenuate the extent of STZ-induced beta cell dysfunction and diabetes. Adult chow-fed C57BL/6 mice first received intra-third ventricle injections of [Ser4, Ile8]-oxytocin at 1 mg per injection twice per day for 7 consecutive days. Non-treatment control mice received intra-third ventricle injections of vehicle instead of [Ser4, Ile8]-oxytocin. From Day 4 to Day 7 of [Ser4, Ile8]-oxytocin treatment, both treatment and control groups received intraperitoneal injections of STZ at 40 mg/kg body weight per injection per day for 4 days. The same panel of examinations were performed including glucose tolerance test, fasting blood insulin levels and glucose-stimulated insulin secretion in these mice.
Finally [Asu1,6]-oxytocin was tested for potential […] protection and anti-diabetic effects using an STZ-induced diabetic mouse model. [Asu1,6]-oxytocin pretreatment was given to adult chow-fed C57BL/6 mice via intra-third ventricle injections at 1 μg per injection b.i.d. for 7 consecutive days. Vehicle injections were given in parallel to non-treatment control group. From Day 4 to Day 7 of [Asu1,6]-oxytocin treatment, mice were subjected to STZ induction of diabetes at 40 mg/kg body weight per intraperitoneal injection per day for 4 days. Following [Asu1,6]-oxytocin and STZ treatments, mice were evaluated for glucose tolerance test, fasting blood insulin levels, and glucose-stimulated insulin secretion.

[2] = system: uterine contractile response; conditions: of natural oxytocin, literature report (36); cited from earlier work
[3] = system: HFD-induced prediabetic mouse model; assay: Acute intra-third ventricle therapy in HFD-induced prediabetic (dietary obese) mice: GTT, fasting blood insulin, body weight; type: in vivo, C57BL/6 mice; conditions: for fasting blood insulin levels (hyperinsulinemia) / glucose intolerance (glucose tolerance test, GTT and AUC) / treatment effects compared with oxytocin at the same dose: 2-month HFD mice, intra-third ventricle; for fasting blood insulin levels (hyperinsulinemia) / glucose intolerance (glucose tolerance test, GTT and AUC): 2 μg per injection twice over overnight fasting, vs vehicle; for treatment effects compared with oxytocin at the same dose: 2 μg per injection twice, GTT and fasting insulin
Text: as §1, §2, §3
Acute oxytocin therapy reverses insulin resistance in dietary obese mice independently of body weight. […] To experimentally address whether oxytocin could have an anti-diabetic action, and independently of its anti-obesity effect, an acute oxytocin therapy paradigm was applied to dietary obese mice to avoid confounding body weight changes, so that the potential anti-diabetes effect of oxytocin could be dissected from its anti-obesity effect. Adult male C57BL/6 mice […] of high-fat diet (HFD) feeding since weaning to develop pre-diabetic glucose intolerance and hyperinsulinemia. Then these mice received third-ventricle implantation of guide cannula followed by postsurgical recovery. Oxytocin was administered via pre-implanted third-ventricle cannula at a dose of 2 μg per injection twice over an overnight fasting period, one at the starting point of fasting and the other at 30 min prior to glucose tolerance test (GTT). Mice of treatment control group received intra-third ventricle vehicle injections.
Acute [Ser4, Ile8]-oxytocin therapy improves insulin resistance in dietary obese mice independently of body weight. Having observed the anti-insulin resistance effect of oxytocin, it was next investigated whether oxytocin peptide analogs have similar or stronger treatment effect. The purpose of this experiment was two-fold. First, was to investigate whether the anti-insulin resistance action of oxytocin could be extended to oxytocin analogs. […] Existing oxytocin peptide analogs were screened. [Ser4, Ile8]-oxytocin came out of the screen as a good candidate. […] This stronger anti-insulin resistance effect of [Ser4, Ile8]-oxytocin is in line with structure-based theoretical prediction of drug effects. The substitution of glutamine at amino acid position 4 of oxytocin with serine has two direct effects on peptide function—it strengthens the α-helical structure in peptide (13), which leads to an overall structural stabilization, longer drug duration, and better protein binding property with signaling partners; it also increases the hydrophobicity of peptide, which leads to enhanced membrane permeability and improved tissue distribution. […]

obesity = conditions: cited from earlier work
normal men = normal men (29); cited from earlier work
type-1 diabetic patients = type-1 diabetic patients (28); cited from earlier work
normal rats = conditions: central or peripheral administration; normal rats (5); cited from earlier work

Compound	first-phase glucose-stimulated insulin secretion (GSIS) ([1]; 7-day pretreatment, STZ mice)	fasting blood insulin levels [1]	glucose intolerance (glucose tolerance test, GTT and AUC) [1]	intrinsic activity relative to natural oxytocin [2] [%]	fasting blood insulin levels (hyperinsulinemia) [3]	glucose intolerance (glucose tolerance test, GTT and AUC) [3]	treatment effects compared with oxytocin at the same dose [3]	second-phase glucose-stimulated insulin secretion (GSIS) ([1]; blood insulin 20 min after glucose 3 g/kg i.p., 7-day pretreatment, STZ mice)	obesity (obesity; chronic central or peripheral oxytocin treatment (25; 37))	food intake (obesity; oxytocin treatment (37))	insulin resistance ([3]; obesity-induced type-2 prediabetic mice, acute treatment)	pancreatic insulin secretion (normal men)	pancreatic insulin secretion (type-1 diabetic patients)	pancreatic insulin secretion (normal rats)
[Asu1,6]-oxytocin	appreciably improved	appreciably improved	appreciably improved	~70	lowered fasting blood insulin levels	improved glucose intolerance	slightly weaker than oxytocin	–	–	–	–	–	–	–
CC[C@H](C)[C@@H]1NC(=O)[C@H](Cc2ccc(O)cc2)NC(=O)[C@@H](N)CSSC[C@@H](C(=O)N2CCC[C@H]2C(=O)N[C@@H](CC(C)C)C(=O)NCC(N)=O)NC(=O)[C@H](CC(N)=O)NC(=O)[C@H](CCC(N)=O)NC1=O [oxytocin, Cys-Tyr-Ile-Gln-Asn-Cys-Pro-Leu-Gly-NH2]	potentiated	protected fasting blood insulin levels	significantly improved glucose intolerance	–	significantly improved	significantly improved	–	potentiated	can decrease obesity	decreases rather than increases food intake	can acutely reverse insulin resistance	can stimulate pancreatic insulin secretion	can stimulate pancreatic insulin secretion	can stimulate pancreatic insulin secretion
[Ser4, Ile8]-oxytocin (CYISNCPIG; ends and bridges not checked; cysteine pairing not given here; UniProt P01178 20-28, looked up, variant Q4S L8I) [oxytocin analog: glutamine at position 4 substituted with serine, leucine at position 8 with isoleucine; Bachem Americas, Inc]	significantly higher levels of first-phase GSIS than non-treatment group	ameliorated circulating insulin insufficiency	significantly prevented STZ-induced glucose intolerance	–	significantly corrected	significantly corrected glucose intolerance	higher efficacy than oxytocin	–	–	–	–	–	–	–
